{"source": "patent US20160166577A1", "about": "“TREATMENT OF PULMONARY FIBROSIS USING AN INHIBITOR OF CBP/CATENIN” (PRISM Pharma Co., Ltd., priority 2012, published 2016)", "key": {"[1]": {"system": "bleomycin-induced pulmonary fibrosis", "test": "Bleomycin (BLM)-induced pulmonary fibrosis in mice", "format": "in vivo, C57BL/6 mice", "settings": "for antifibrotic effect in six-week course of BLM-induced fibrosis: Example 3, 5 mg/kg/day over weeks 4-6, FIG. 4", "method": "C57BL/6 mice received subcutaneous implants of an ALZET mini-osmotic pump (Durect Corp., California) that released BLM continuously (Example 1, […]; Example 2, 120 U/kg/mouse/day) for seven days (Day 1-Day 7), to induce lung fibrosis (Lab Invest. 50:487-488, 1984; Am. J. Resp. Cell Mol. Biol. 45:489-497, 2011). Bleomycin induces epithelial injury, causing increased pulmonary inflammation from Days 1-21, peaking at about Day 10 before subsiding. Fibrosis begins at about Day 8 and gradually increases until Day 28.\nBLM mice treated with test compound received a second subcutaneous ALZET mini-osmotic pump (Durect Corp., California) that released Compound A continuously. Compound A, 4-(((6S,9S,9aS)-1-(benzylcarbamoyl)-2,9-dimethyl-4,7-dioxo-8-(quinolin-8-ylmethyl)octahydro-1H-pyrazino[2,1-c][1,2,4]triazin-6-yl)methyl)phenyl dihydrogen phosphate.\nAshcroft score (J. Clin. Pathol. 41:467-470, 1988) was calculated from tissue sections of right lung stained by H&E. Left lung homogenates were analyzed for soluble collagen content using SIRCOL Collagen Assay kit (Biocolor Ltd., Carrickfergus, UK).\nIn Example 1, Compound A was administered 5 mg/kg/day over days 15-28.\nIn Example 2, Compound A was administered 1 mg/kg/day over Days 1-28 (“whole”), Days 1-14 (“early”) or Days 15-28 (“late”). […] Bleo, bleomycin treatment alone; Bleo+Cmpd A whole, bleomycin plus Compound A administered throughout 4 week period; Bleo+early 2w, bleomycin plus Compound A administered over weeks 1-2; Bleo+late 2w, bleomycin plus Compound A administered over weeks 3-4.\nIn Example 3, a six-week rather than four-week course of BLM-induced fibrosis was studied. In this example, either Compound A (5 mg/kg/day) or ICG-001 (5 mg/kg/day), another β-catenin inhibitor, was administered to BLM-treated mice over weeks 4-6."}, "[2]": {"system": "lung epithelial cell line LA-4", "test": "TGF-β-induced epithelial-to-mesenchymal transition (EMT) in LA-4 cells", "format": "cell-based, murine", "method": "In Example 4, the murine lung epithelial cell line, LA-4, available from the American Type Culture Collection (ATCC; Manassas, Va.), was treated with TGF-β (5 ng/ml) to induce epithelial-to-mesenchymal transition (EMT), a marker for fibrosis (J Clin Invest. 119:1420-1428, 2009). TGF-β treated cells were treated with no or with increasing concentrations (0.01 μM, 0.05 μM, 0.1 μM, or 0.5 μM) of Compound C. Compound C, (6S,9S,9aS)—N-benzyl-6-(4-hydroxybenzyl)-2,9-dimethyl-4,7-dioxo-8-(quinolin-8-ylmethyl)octahydro-1H-pyrazino[2,1-c][1,2,4]triazine-1-carboxamide."}, "[3]": {"system": "bleomycin-induced lung fibrosis", "settings": "cited from earlier work"}, "[4]": {"molecular_target": "β-catenin/CBP interaction (Homo sapiens, UniProt Q92793)", "sequence (Q92793 whole entry)": "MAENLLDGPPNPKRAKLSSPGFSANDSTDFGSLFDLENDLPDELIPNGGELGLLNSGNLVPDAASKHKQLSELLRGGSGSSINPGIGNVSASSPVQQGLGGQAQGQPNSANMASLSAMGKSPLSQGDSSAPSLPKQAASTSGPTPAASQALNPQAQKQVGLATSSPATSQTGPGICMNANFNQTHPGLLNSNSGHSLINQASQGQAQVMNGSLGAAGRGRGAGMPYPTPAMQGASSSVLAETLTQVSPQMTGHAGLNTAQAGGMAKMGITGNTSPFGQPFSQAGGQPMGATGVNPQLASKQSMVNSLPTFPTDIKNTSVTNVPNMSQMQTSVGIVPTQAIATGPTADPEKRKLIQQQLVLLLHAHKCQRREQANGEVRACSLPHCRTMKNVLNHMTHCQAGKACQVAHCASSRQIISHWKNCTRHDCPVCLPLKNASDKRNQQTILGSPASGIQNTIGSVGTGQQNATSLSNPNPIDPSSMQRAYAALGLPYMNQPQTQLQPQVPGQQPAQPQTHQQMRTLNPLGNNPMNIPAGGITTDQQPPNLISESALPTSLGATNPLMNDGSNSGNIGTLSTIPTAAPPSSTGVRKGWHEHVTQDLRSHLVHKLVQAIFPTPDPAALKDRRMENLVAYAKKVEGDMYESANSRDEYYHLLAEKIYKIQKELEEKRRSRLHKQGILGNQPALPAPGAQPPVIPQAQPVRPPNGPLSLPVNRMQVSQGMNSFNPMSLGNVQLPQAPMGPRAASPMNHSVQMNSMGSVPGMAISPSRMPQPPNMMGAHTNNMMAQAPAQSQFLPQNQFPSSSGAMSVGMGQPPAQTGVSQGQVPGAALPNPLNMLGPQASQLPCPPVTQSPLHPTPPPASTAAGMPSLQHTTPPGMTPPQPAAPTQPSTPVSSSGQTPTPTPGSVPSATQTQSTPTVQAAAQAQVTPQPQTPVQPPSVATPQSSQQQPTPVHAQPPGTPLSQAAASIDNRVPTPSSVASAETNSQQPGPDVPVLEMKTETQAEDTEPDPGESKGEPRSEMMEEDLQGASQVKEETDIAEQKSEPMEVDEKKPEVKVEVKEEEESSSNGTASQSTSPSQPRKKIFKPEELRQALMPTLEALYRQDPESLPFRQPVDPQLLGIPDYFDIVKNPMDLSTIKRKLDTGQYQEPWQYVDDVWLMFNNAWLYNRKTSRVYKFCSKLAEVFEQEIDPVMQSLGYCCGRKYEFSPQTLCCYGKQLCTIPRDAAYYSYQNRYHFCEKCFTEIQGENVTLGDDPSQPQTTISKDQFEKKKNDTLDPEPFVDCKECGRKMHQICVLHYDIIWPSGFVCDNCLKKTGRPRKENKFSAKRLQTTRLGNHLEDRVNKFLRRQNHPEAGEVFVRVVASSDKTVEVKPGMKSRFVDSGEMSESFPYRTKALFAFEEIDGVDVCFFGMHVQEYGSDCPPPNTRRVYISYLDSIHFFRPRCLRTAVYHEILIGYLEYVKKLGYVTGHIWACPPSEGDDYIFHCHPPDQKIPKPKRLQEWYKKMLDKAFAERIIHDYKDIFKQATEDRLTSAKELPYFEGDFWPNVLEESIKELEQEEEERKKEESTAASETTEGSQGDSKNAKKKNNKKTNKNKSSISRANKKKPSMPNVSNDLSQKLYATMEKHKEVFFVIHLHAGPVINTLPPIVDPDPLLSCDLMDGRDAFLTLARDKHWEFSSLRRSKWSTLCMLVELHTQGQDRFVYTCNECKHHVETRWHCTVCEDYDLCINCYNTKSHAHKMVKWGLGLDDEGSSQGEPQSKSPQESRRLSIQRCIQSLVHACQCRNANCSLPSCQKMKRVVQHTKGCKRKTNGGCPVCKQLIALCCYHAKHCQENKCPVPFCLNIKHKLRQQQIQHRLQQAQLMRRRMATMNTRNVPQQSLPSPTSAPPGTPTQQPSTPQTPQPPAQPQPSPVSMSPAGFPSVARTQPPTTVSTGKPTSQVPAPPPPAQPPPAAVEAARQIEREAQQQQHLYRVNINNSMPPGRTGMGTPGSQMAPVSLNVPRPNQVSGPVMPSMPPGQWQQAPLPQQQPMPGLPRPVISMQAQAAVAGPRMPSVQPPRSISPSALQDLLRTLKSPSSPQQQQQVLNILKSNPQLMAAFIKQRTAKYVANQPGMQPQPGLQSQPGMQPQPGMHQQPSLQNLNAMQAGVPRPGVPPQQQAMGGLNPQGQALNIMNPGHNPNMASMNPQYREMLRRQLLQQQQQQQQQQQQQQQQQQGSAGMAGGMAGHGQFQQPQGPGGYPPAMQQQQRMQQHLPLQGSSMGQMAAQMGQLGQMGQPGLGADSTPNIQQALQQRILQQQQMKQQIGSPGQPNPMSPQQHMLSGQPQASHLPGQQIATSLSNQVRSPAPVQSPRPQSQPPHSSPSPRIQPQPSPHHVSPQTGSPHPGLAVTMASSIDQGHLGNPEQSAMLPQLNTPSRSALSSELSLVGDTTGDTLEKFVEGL", "settings": "cited from earlier work"}}}
{"smiles": "C[C@H]1[C@H]2N(C(=O)CN(C)N2C(=O)NCc2ccccc2)[C@@H](Cc2ccc(OP(=O)(O)O)cc2)C(=O)N1Cc1cccc2cccnc12", "note": "[Compound A, 4-(((6S,9S,9aS)-1-(benzylcarbamoyl)-2,9-dimethyl-4,7-dioxo-8-(quinolin-8-ylmethyl)octahydro-1H-pyrazino[2,1-c][1,2,4]triazin-6-yl)methyl)phenyl dihydrogen phosphate]", "values": [{"measurement": "lung fibrosis by histological examination", "setting": "[1]; Example 1, 5 mg/kg, days 14-28, FIG. 2C", "result": "reduces lung fibrosis"}, {"measurement": "lung fibrosis (Ashcroft score)", "setting": "[1]; Example 1, 5 mg/kg/day s.c. osmotic pump, days 15-28 (days 14-28), FIG. 1A, vs bleomycin alone", "result": "reduces lung fibrosis"}, {"measurement": "collagen deposition (SIRCOL collagen assay, left lung)", "setting": "[1]; Example 1, 5 mg/kg/day, days 15-28 (days 14-28), FIG. 1B, vs bleomycin alone", "result": "reduced"}, {"measurement": "antifibrotic effect, early (inflammatory) phase treatment", "setting": "[1]; Example 2, 1 mg/kg/day, Days 1-14 (early), FIG. 3, vs no test compound", "result": "not significantly beneficial"}, {"measurement": "antifibrotic effect, late (fibrotic) phase treatment", "setting": "[1]; Example 2, 1 mg/kg/day, Days 15-28 (late), FIG. 3", "result": "significantly reduced lung fibrosis"}, {"measurement": "late phase treatment compared with treatment throughout the entire period", "setting": "[1]; Example 2, 1 mg/kg/day, Days 15-28 vs Days 1-28 (whole), FIG. 3", "result": "equal to, or even superior to"}, {"measurement": "antifibrotic effect in six-week course of BLM-induced fibrosis", "setting": "[1]", "result": "has an antifibrotic effect"}]}
{"smiles": "C[C@H]1[C@H]2N(C(=O)CN(C)N2C(=O)NCc2ccccc2)[C@@H](Cc2ccc(O)cc2)C(=O)N1Cc1cccc2cccnc12", "note": "[Compound C, (6S,9S,9aS)—N-benzyl-6-(4-hydroxybenzyl)-2,9-dimethyl-4,7-dioxo-8-(quinolin-8-ylmethyl)octahydro-1H-pyrazino[2,1-c][1,2,4]triazine-1-carboxamide]", "values": [{"measurement": "α-SMA expression by fluorescent microscopy", "setting": "[2]; TGF-β 5 ng/ml plus compound 0.01 μM, FIG. 6", "result": "decreased alpha smooth muscle actin (α-SMA) expression"}, {"measurement": "TGF-β-induced alpha smooth muscle actin (α-SMA) formation / EMT", "setting": "[2]; TGF-β 5 ng/ml, increasing concentrations 0.01, 0.05, 0.1, 0.5 μM, FIG. 5", "result": "inhibit TGF-β-induced alpha smooth muscle actin (α-SMA) formation"}]}
{"smiles": "O=C1[C@H](Cc2ccc(O)cc2)N2C(=O)CCN(C(=O)NCc3ccccc3)[C@H]2CN1Cc1cccc2ccccc12", "note": "[ICG-001]", "values": [{"measurement": "antifibrotic effect in six-week course of BLM-induced fibrosis", "setting": "[1]", "result": "antifibrotic effect, unlike β-catenin inhibitor ICG-001"}, {"measurement": "bleomycin-induced lung fibrosis", "setting": "[3]; 5 mg/kg per day, mice", "result": "attenuates bleomycin-induced lung fibrosis"}, {"measurement": "β-catenin signaling", "setting": "[3]; 5 mg/kg per day, mice", "result": "significantly inhibits β-catenin signaling"}, {"measurement": "fibrosis, administration concurrent with bleomycin", "setting": "[3]; concurrent administration", "result": "prevents fibrosis"}, {"measurement": "established fibrosis, late administration", "setting": "[3]; late administration", "result": "reverse established fibrosis"}, {"measurement": "survival, late administration", "setting": "[3]; late administration", "result": "significantly improve survival"}, {"measurement": "selectivity β-catenin/CBP vs β-catenin/p300 interaction", "setting": "[4]", "result": "selectively blocks the β-catenin/CBP interaction without interfering with the β-catenin/p300 interaction"}]}
